From patent US5723609A, “Bis (hydroxymethyl) cyclobutyl purines” (E. R. Squibb & Sons, Inc., priority 1989, dated 1998)
pIC50: −log10 of the molar value. Like-named read-outs stand apart in the source and are kept apart here.

What was measured:
VZV = VZV plaque reduction antiviral assay in WI-38 cell monolayers; type: cell-based, varicella zoster virus; conditions: Human alphaherpesvirus 3; VZV strain ELLEN; WI-38 cells; 6-7 days at 37° C.; at least 50% plaque reduction; read-out: ID50 (the source's name)
Experimental: (§1) Assays were performed in cell culture systems to determine the concentrations of compounds that are effective in preventing several kinds of viral infections.
(§2) HSV-1 (herpes simplex virus type 1, strain Schooler), HSV-2 (herpes simplex virus type 2, strain 186), VZV (varicella zoster virus, strain ELLEN), HCMV (human cytomegalovirus, strain AD 169), MuLV (murine leukemia virus, strain CAS), HIV (human immunodeficiency virus, strain HTLV-IIIB).
(§3) HSV-1, HSV-2, HCMV, and VZV antiviral assays:
(§4) Virus was adsorbed to WI-38 cell culture monolayers in 6 well culture plates (Costar, Cambridge, Mass.) for 1 hour prior to addition of maintenance medium containing duplicate dilutions of the test compound. Inhibition of plaque development was evaluated on fixed and stained monolayers after 4 days incubation at 37° C. for HSV-1 and HSV-2 and after 6-7 days incubation at 37° C. for HCMV and VZV. ID50 values were determined from the drug concentration which conferred at least a 50% plaque reduction compared to virus controls.

HSV-1 = HSV-1 plaque reduction antiviral assay in WI-38 cell monolayers; type: cell-based, herpes simplex virus type 1; conditions: Human alphaherpesvirus 1, 96 h; HSV-1 strain Schooler; WI-38 cells; 4 days at 37° C.; at least 50% plaque reduction; read-out: ID50 (the source's name)
Experimental: as §1, §2, §3, §4

HCMV = HCMV plaque reduction antiviral assay in WI-38 cell monolayers; type: cell-based, human cytomegalovirus; conditions: Human betaherpesvirus 5; HCMV strain AD 169; WI-38 cells; 6-7 days at 37° C.; at least 50% plaque reduction; read-out: ID50 (the source's name)
Experimental: as §1, §2, §3, §4

HSV-2 = HSV-2 plaque reduction antiviral assay in WI-38 cell monolayers; type: cell-based, herpes simplex virus type 2, strain 186
Experimental: as §1, §2, §3, §4

HIV = HIV antiviral assay, cytopathic effect in CEM cells (XTT-PMS); type: cell-based; conditions: Human immunodeficiency virus 1, CCRF-CEM, 168 h, HIV strain HTLV-IIIB, 7 days at 37° C., inhibits CPE by 50%, read-out: ID50 (the source's name)
Experimental: as §1, §2
HIV antiviral assay: Suspensions of CEM(Nara and Fischinger, Nature, 332:469, 1988) cells were infected at a multiplicity of infection (e.g. virus/cell) of 0.12 with HIV (strain HTLV-III B). […] Following incubation, viable cell numbers were counted in each well using a colorimetric assay following incubation of cells with XTT-PMS solution (XTT tetrazolium reagent plus phenazine methosulfate PMS).
Percent reduction of vital cytopathic effect (CPE) in drug treated compared to untreated virus infected cells, and percent reduction of cell viability in drug treated uninfected cells compared to untreated controls were calculated and plotted versus the drug concentrations tested. […]

MuLV = MuLV antiviral assay, syncytial plaques (SC-1 cells, XC cell overlay); type: cell-based; conditions: Murine leukemia virus, SC1, MuLV strain CAS, read-out: ID50 (the source's name)
Experimental: as §1, §2
Antiviral assays using MuLV were performed with some modification, as described by Rowe et al. and Shannon et al., SC-1 cells were planted at approximately 2×10^5 cell per well in 6 well plates. After overnight incubation at 37° C., the cell cultures were sensitized with DEAE-Dextran for one hour at 37° C., rinsed and inoculated with MuLV. Cultures were re-fed with growth medium containing different concentrations of the test compound. After three more days at 37° C., cultures were re-fed with fresh medium plus test compounds and incubated at 37° C. for an additional 3 days. Cultures were then washed to remove medium, ultraviolet light irradiated, and planted with approximately 5×10^5 XC cells per well in cell growth medium containing the appropriate concentration of the test compound. […] Finally the cultures were rinsed, stained and syncytial plaques were counted.

[1] = Human alphaherpesvirus 2, 96 h, HSV-2 strain 186, WI-38 cells, 4 days at 37° C., at least 50% plaque reduction, read-out: ID50 (the source's name)
[2] = Human alphaherpesvirus 2, WI-38, 96 h, read-out: ID50

## Nc1nc2c(nnn2[C@@H]2C[C@H](CO)[C@H]2CO)c(=O)[nH]1 (relative stereo) [(1α,2β,3α)-5-Amino-3-[2,3-bis(hydroxymethyl)cyclobutyl]-3,6-dihydro-7H-1,2,3-triazolo[4,5-d]pyrimidin-7-one]
VZV
  pIC50: 4.42 to 5.42
HSV-1
  pIC50: 5.12
HCMV
  pIC50: 3.42
HSV-2; [1]
  pIC50: 5.12

## Nc1nc2c(ncn2[C@@H]2C[C@H](CO)[C@H]2CO)c(=O)[nH]1 (relative stereo) [(1α,2β,3α)-9-[2,3-Bis(hydroxymethyl)cyclobutyl]guanine]
HIV
  pIC50: 4.52
VZV
  pIC50: 6.70
HSV-1
  pIC50: 6.70 to 7.10
HCMV
  pIC50: 5.42
HSV-2; [1]
  pIC50: 7.10 to 7.40
MuLV
  pIC50: 5.42

## Nc1ncnc2c1ncn2[C@@H]1C[C@H](CO)[C@H]1CO (relative stereo) [(1α,2β,3α)-3-(6-Amino-9H-purin-9-yl)-1,2-cyclobutanedimethanol]
HIV
  pIC50: 5.17
VZV
  pIC50: 5.70 to 6.10
HSV-1
  pIC50: 5.10
HCMV
  pIC50: 6.10
HSV-2; [1]
  pIC50: 5.10 to 5.40

## O=c1[nH]c(=O)n([C@@H]2C[C@H](CO)[C@H]2CO)cc1/C=C/Br (relative stereo) [[1α(E),2β,3α]-1-[2,3-Bis(hydroxymethyl)cyclobutyl]-5-(2-bromoethenyl)-2,4(1H,3H)pyrimidinedione]
VZV
  pIC50: 7.22 to 7.52
HSV-1
  pIC50: 4.52 to 5.00
HCMV
  pIC50: < 3.52
HSV-2; [2]
  pIC50: < 3.52

## Nc1ccn([C@@H]2C[C@H](CO)[C@H]2CO)c(=O)n1 (relative stereo) [(1α,2β,3α)-4-Amino-1-[2,3-bis(hydroxymethyl)cyclobutyl]-2(1H)-pyrimidinone]
VZV
  pIC50: 4.66
HSV-1
  pIC50: 3.35
HCMV
  pIC50: 4.36 to 4.66
HSV-2; [1]
  pIC50: 3.35

## O=c1[nH]c(=O)n([C@@H]2C[C@H](CO)[C@H]2CO)cc1I (relative stereo) [(1α,2β,3α)-1-[2,3-Bis(hydroxymethyl)cyclobutyl]-5-iodo-2,4(1H,3H)-pyrimidinedione]
VZV
  pIC50: 4.55 to 4.85
HSV-1
  pIC50: 4.85 to 5.22
HCMV
  pIC50: < 3.55
HSV-2; [2]
  pIC50: < 3.55
